Square brackets hold non-standard residues; d marks the D form. Side chains are listed from the residue outwards. Peptide text beside a SMILES is read from it. * marks the point of attachment. C18 diacid = O=C(O)CCCCCCCCCCCCCCCCC(=O)*; NMeY = CN[C@@H](Cc1ccc(O)cc1)C(=O)O; Palmitoyl = CCCCCCCCCCCCCCCC(=O)*; αMeF = C[C@](N)(Cc1ccccc1)C(=O)O; Iva = CC[C@](C)(N)C(=O)O; Aib = CC(C)(N)C(=O)O
Test system: male C57BL/6J mouse
Experiment: Evaluation of feeding suppressive action in mice
Assay type: in vivo
Settings: 30 nmol/kg s.c. once a day for 3 days; 3-days cumulative food consumption vs solvent control
Experimental: The feeding suppressive activity of a test compound was examined by the method described below.
The test compound was dissolved at a concentration of 30 or 100 nmol/2 mL in a solvent (10% DMSO-containing physiological saline). The test compound solution was subcutaneously administered at a dose of 2 mL/kg to the back of each male C57BL/6J mouse at 8-9 weeks of age (20-26° C., allowed to take food and water ad libitum; raised in the 12-hour bright-12-hour dark cycle). The administration was performed once a day for 3 days. After the administration, the mouse was individually raised in a rearing cage, and given previously weighed food; food consumption for 3 days after the start of administration was measured. The food consumption was calculated by subtracting the amount of remaining food from the weight of the food given on the day of the start of administration. When the food consumption of a control group receiving administration of the solvent alone was regarded as a suppression rate of 0%, the feeding suppressive activity of each test compound was evaluated on the basis of 3-days cumulative food consumption after the start of administration. The food intake suppression rate (%) of the test compound was defined as (Food consumption of the control group−Food consumption of the test compound-administered group)/Food consumption of the control group×100.

| Compound | Rate of feeding suppression (%) |
| --- | --- |
| CCCCCCCCCCCCCCCC(=O)NCC(=O)NCC(=O)NCC(=O)NCC(=O)NCCCC[C@H](NC(=O)[C@H](CC(=O)O)NC(=O)[C@H](CO)NC(=O)[C@@H](NC(=O)[C@](C)(Cc1ccccc1)NC(=O)[C@@H](NC(=O)CNC(=O)[C@H](CCC(=O)O)NC(=O)C(C)(C)NC(=O)[C@@H](N)Cc1ccc(O)cc1)[C@@H](C)O)[C@@H](C)O)C(=O)NC(C)(C)C(=O)N[C@@H](CCCCN)C(=O)NC(C)(C)C(=O)N[C@@H](CC(C)C)C(=O)N[C@@H](CC(=O)O)C(=O)N[C@@H](CCCCN)C(=O)N[C@@H](CCC(N)=O)C(=O)N[C@@H](CCCNC(=N)N)C(=O)N[C@@H](CCC(N)=O)C(=O)N[C@@](C)(CC)C(=O)N[C@@H](CCC(=O)O)C(=O)N[C@@H](Cc1ccccc1)C(=O)N[C@H](C(=O)N[C@@H](CCCNC(=N)N)C(=O)N[C@@H](Cc1c[nH]cn1)C(=O)N[C@@H](CC(C)C)C(=O)N[C@@H](CC(C)C)C(=O)N[C@@H](CC(N)=O)C(=O)N[C@@H](CCCCN)C(=O)NC(C)(C)C(=O)N[C@H](C(=O)N[C@@H](CCCNC(=N)N)C(=O)N[C@@H](CCC(N)=O)C(=O)N[C@@H](CCCNC(=N)N)C(=O)N[C@@H](Cc1ccc(O)cc1)C(N)=O)[C@@H](C)O)C(C)C [Example 19] (H-Y[Aib]EGT[αMeF]TSDK([Gly-Gly-Gly-Gly-Palmitoyl])[Aib]K[Aib]LDKQRQ[Iva]EFVRHLLNK[Aib]TRQRY-NH2) | −37.0% |
| CCCCCCCCCCCCCCCC(=O)NCC(=O)NCC(=O)NCC(=O)NCC(=O)NCCCC[C@H](NC(=O)[C@H](CC(=O)O)NC(=O)[C@H](CO)NC(=O)[C@@H](NC(=O)[C@](C)(Cc1ccccc1)NC(=O)[C@@H](NC(=O)CNC(=O)[C@H](CCC(=O)O)NC(=O)C(C)(C)NC(=O)[C@H](Cc1ccc(O)cc1)NC)[C@@H](C)O)[C@@H](C)O)C(=O)NC(C)(C)C(=O)N[C@H](C(=O)NC(C)(C)C(=O)N[C@@H](CC(C)C)C(=O)N[C@@H](CC(=O)O)C(=O)N[C@@H](CCCCN)C(=O)N[C@@H](CCC(N)=O)C(=O)N[C@@H](C)C(=O)N[C@@H](CCC(N)=O)C(=O)N[C@@](C)(CC)C(=O)N[C@@H](CCC(=O)O)C(=O)N[C@@H](Cc1ccccc1)C(=O)N[C@H](C(=O)N[C@@H](CCCNC(=N)N)C(=O)N[C@@H](Cc1c[nH]cn1)C(=O)N[C@@H](CC(C)C)C(=O)N[C@@H](CC(C)C)C(=O)N[C@@H](CC(N)=O)C(=O)N[C@@H](CCCCN)C(=O)NC(C)(C)C(=O)N[C@H](C(=O)N[C@@H](CCCNC(=N)N)C(=O)N[C@@H](CCC(N)=O)C(=O)N[C@@H](CCCNC(=N)N)C(=O)N[C@@H](Cc1ccc(O)cc1)C(N)=O)[C@@H](C)O)C(C)C)[C@@H](C)CC [Example 29] (H-[NMeY][Aib]EGT[αMeF]TSDK([Gly-Gly-Gly-Gly-Palmitoyl])[Aib]I[Aib]LDKQAQ[Iva]EFVRHLLNK[Aib]TRQRY-NH2) | −43.7% |
| CCCCCCCCCCCCCCCC(=O)NCC(=O)NCC(=O)NCC(=O)NCC(=O)NCCCC[C@H](NC(=O)[C@H](CC(=O)O)NC(=O)[C@H](CO)NC(=O)[C@@H](NC(=O)[C@](C)(Cc1ccccc1)NC(=O)[C@@H](NC(=O)CNC(=O)[C@H](CCC(=O)O)NC(=O)C(C)(C)NC(=O)[C@@H](N)Cc1ccc(O)cc1)[C@@H](C)O)[C@@H](C)O)C(=O)N[C@@H](CO)C(=O)N[C@H](C(=O)NC(C)(C)C(=O)N[C@@H](CC(C)C)C(=O)N[C@@H](CC(=O)O)C(=O)N[C@@H](CCCCN)C(=O)N[C@@H](CCC(N)=O)C(=O)N[C@@H](CCCNC(=N)N)C(=O)N[C@@H](CCC(N)=O)C(=O)N[C@@](C)(CC)C(=O)N[C@@H](CCC(=O)O)C(=O)N[C@@H](Cc1ccccc1)C(=O)N[C@H](C(=O)N[C@@H](CCCNC(=N)N)C(=O)N[C@@H](Cc1c[nH]cn1)C(=O)N[C@@H](CC(C)C)C(=O)N[C@@H](CC(C)C)C(=O)N[C@@H](CC(N)=O)C(=O)N[C@@H](CCCCN)C(=O)NC(C)(C)C(=O)N[C@H](C(=O)N[C@@H](CCCNC(=N)N)C(=O)N[C@@H](CCC(N)=O)C(=O)N[C@@H](CCCNC(=N)N)C(=O)N[C@@H](Cc1ccc(O)cc1)C(N)=O)[C@@H](C)O)C(C)C)[C@@H](C)CC [Example 15] (H-Y[Aib]EGT[αMeF]TSDK([Gly-Gly-Gly-Gly-Palmitoyl])SI[Aib]LDKQRQ[Iva]EFVRHLLNK[Aib]TRQRY-NH2) | −41.2% |
| CCCCCCCCCCCCCCCC(=O)NCC(=O)NCC(=O)NCC(=O)NCC(=O)NCCCC[C@H](NC(=O)[C@H](CC(=O)O)NC(=O)[C@H](CO)NC(=O)[C@@H](NC(=O)[C@](C)(Cc1ccccc1)NC(=O)[C@@H](NC(=O)CNC(=O)[C@H](CCC(=O)O)NC(=O)C(C)(C)NC(=O)[C@H](Cc1ccc(O)cc1)NC)[C@@H](C)O)[C@@H](C)O)C(=O)NC(C)(C)C(=O)N[C@@H](CCCCN)C(=O)NC(C)(C)C(=O)N[C@@H](CC(C)C)C(=O)N[C@@H](CC(=O)O)C(=O)N[C@@H](CCCCN)C(=O)N[C@@H](CCC(N)=O)C(=O)N[C@@H](CCCNC(=N)N)C(=O)N[C@@H](CCC(N)=O)C(=O)N[C@@](C)(CC)C(=O)N[C@@H](CCC(=O)O)C(=O)N[C@@H](Cc1ccccc1)C(=O)N[C@H](C(=O)N[C@@H](CCCNC(=N)N)C(=O)N[C@@H](Cc1c[nH]cn1)C(=O)N[C@@H](CC(C)C)C(=O)N[C@@H](CC(C)C)C(=O)N[C@@H](CC(N)=O)C(=O)N[C@@H](CCCCN)C(=O)NC(C)(C)C(=O)N[C@H](C(=O)N[C@@H](CCCNC(=N)N)C(=O)N[C@@H](CCC(N)=O)C(=O)N[C@@H](CCCNC(=N)N)C(=O)N[C@@H](Cc1ccc(O)cc1)C(N)=O)[C@@H](C)O)C(C)C [Example 21] (H-[NMeY][Aib]EGT[αMeF]TSDK([Gly-Gly-Gly-Gly-Palmitoyl])[Aib]K[Aib]LDKQRQ[Iva]EFVRHLLNK[Aib]TRQRY-NH2) | −27.9% |
| CC[C@H](C)[C@H](NC(=O)C(C)(C)NC(=O)[C@H](CCCCNC(=O)CNC(=O)CNC(=O)CNC(=O)CNC(=O)CCCCCCCCCCCCCCCCC(=O)O)NC(=O)[C@H](CC(=O)O)NC(=O)[C@H](CO)NC(=O)[C@@H](NC(=O)[C@](C)(Cc1ccccc1)NC(=O)[C@@H](NC(=O)CNC(=O)[C@H](CCC(=O)O)NC(=O)C(C)(C)NC(=O)[C@@H](N)Cc1ccc(O)cc1)[C@@H](C)O)[C@@H](C)O)C(=O)NC(C)(C)C(=O)N[C@@H](CC(C)C)C(=O)N[C@@H](CCC(=O)O)C(=O)N[C@@H](CCCCN)C(=O)N[C@@H](CCC(N)=O)C(=O)N[C@@H](CCCNC(=N)N)C(=O)N[C@@H](CCC(N)=O)C(=O)N[C@@](C)(CC)C(=O)N[C@@H](CCC(=O)O)C(=O)N[C@@H](Cc1ccccc1)C(=O)N[C@H](C(=O)N[C@@H](CCCNC(=N)N)C(=O)N[C@@H](Cc1c[nH]cn1)C(=O)N[C@@H](CC(C)C)C(=O)N[C@@H](CC(C)C)C(=O)N[C@@H](CC(N)=O)C(=O)N[C@@H](CCCCN)C(=O)NC(C)(C)C(=O)N[C@H](C(=O)N[C@@H](CCCNC(=N)N)C(=O)N[C@@H](CCC(N)=O)C(=O)N[C@@H](CCCNC(=N)N)C(=O)N[C@@H](Cc1ccc(O)cc1)C(N)=O)[C@@H](C)O)C(C)C [Example 32] (H-Y[Aib]EGT[αMeF]TSDK([Gly-Gly-Gly-Gly-C18 diacid])[Aib]I[Aib]LEKQRQ[Iva]EFVRHLLNK[Aib]TRQRY-NH2) | −51.0% |
| CCCCCCCCCCCCCCCC(=O)NCC(=O)NCC(=O)NCC(=O)NCC(=O)NCCCC[C@H](NC(=O)[C@H](CC(=O)O)NC(=O)[C@H](CO)NC(=O)[C@@H](NC(=O)[C@](C)(Cc1ccccc1)NC(=O)[C@@H](NC(=O)CNC(=O)[C@H](CCC(=O)O)NC(=O)C(C)(C)NC(=O)[C@H](Cc1ccc(O)cc1)NC)[C@@H](C)O)[C@@H](C)O)C(=O)N[C@@H](C)C(=O)N[C@H](C(=O)NC(C)(C)C(=O)N[C@@H](CC(C)C)C(=O)N[C@@H](CCC(=O)O)C(=O)N[C@@H](CCCCN)C(=O)N[C@@H](CCC(N)=O)C(=O)N[C@@H](CCCNC(=N)N)C(=O)N[C@@H](CCC(N)=O)C(=O)N[C@@](C)(CC)C(=O)N[C@@H](CCC(=O)O)C(=O)N[C@@H](Cc1ccccc1)C(=O)N[C@H](C(=O)N[C@@H](CCCNC(=N)N)C(=O)N[C@@H](Cc1c[nH]cn1)C(=O)N[C@@H](CC(C)C)C(=O)N[C@@H](CC(C)C)C(=O)N[C@@H](CC(N)=O)C(=O)N[C@@H](CCCCN)C(=O)NC(C)(C)C(=O)N[C@H](C(=O)N[C@@H](CCCNC(=N)N)C(=O)N[C@@H](CCC(N)=O)C(=O)N[C@@H](CCCNC(=N)N)C(=O)N[C@@H](Cc1ccc(O)cc1)C(N)=O)[C@@H](C)O)C(C)C)[C@@H](C)CC [Example 37] (H-[NMeY][Aib]EGT[αMeF]TSDK([Gly-Gly-Gly-Gly-Palmitoyl])AI[Aib]LEKQRQ[Iva]EFVRHLLNK[Aib]TRQRY-NH2) | −54.9% |

Reference: patent publication US10501516B2, “Peptide compound” (TAKEDA PHARMACEUTICAL COMPANY LIMITED, priority 2016, dated 2019)
